Test results reported in patent publication US20260062422A1 (Halda Therapeutics OpCo, Inc., priority 2022, published 2026).

molecular target: T1, androgen receptor (Homo sapiens, UniProt P10275); assay: Assay for binding affinity to androgen receptor ([3H]methyltrienolone radioligand, cell cytosol); details: 1 nM [3H]methyltrienolone, 24 hours at 4° C., Table 5
T1 sequence (P10275 1-920 T878A): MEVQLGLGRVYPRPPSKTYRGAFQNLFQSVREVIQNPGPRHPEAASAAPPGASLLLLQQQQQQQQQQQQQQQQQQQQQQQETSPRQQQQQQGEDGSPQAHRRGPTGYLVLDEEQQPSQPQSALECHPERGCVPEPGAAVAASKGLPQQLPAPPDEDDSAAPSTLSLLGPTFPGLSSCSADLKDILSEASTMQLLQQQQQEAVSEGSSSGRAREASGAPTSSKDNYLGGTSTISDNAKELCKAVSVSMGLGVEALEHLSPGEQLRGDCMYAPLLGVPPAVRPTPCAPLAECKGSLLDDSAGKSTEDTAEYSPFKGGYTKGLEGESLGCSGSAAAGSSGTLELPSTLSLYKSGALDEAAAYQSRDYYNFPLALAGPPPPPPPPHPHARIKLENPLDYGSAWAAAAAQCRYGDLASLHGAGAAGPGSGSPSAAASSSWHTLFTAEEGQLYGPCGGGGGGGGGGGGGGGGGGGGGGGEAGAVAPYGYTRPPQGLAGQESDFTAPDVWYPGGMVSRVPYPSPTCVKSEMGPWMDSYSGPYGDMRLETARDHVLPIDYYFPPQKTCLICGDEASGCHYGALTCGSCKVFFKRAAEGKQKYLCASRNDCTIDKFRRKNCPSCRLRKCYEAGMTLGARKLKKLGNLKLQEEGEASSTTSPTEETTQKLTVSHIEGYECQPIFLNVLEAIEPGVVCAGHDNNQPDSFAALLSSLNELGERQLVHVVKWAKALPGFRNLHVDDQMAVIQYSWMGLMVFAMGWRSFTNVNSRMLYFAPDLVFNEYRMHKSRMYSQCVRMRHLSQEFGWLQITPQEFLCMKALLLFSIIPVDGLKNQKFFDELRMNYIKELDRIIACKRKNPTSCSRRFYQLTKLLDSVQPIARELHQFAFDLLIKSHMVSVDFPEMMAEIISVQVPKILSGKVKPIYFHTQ
Protocol: Fractions of cell cytosol ([…] cell/point) were incubated for 24 hours at 4° C. with 1 nM [^3H]methyltrienolone in the absence or presence of the test compound in a buffer containing 25 mM Hepes-Tris (pH 7.4), 1 mM EDTA, 10 mM Na2MoO4, 2 mM DTT, 5 μM triamcinolone acetonide, and 10% glycerol. Nonspecific binding was determined in the presence of 1 μM testosterone. Following incubation, the samples were filtered rapidly under vacuum through glass fiber filters (GF/B, Packard) presoaked with 0.3% PEI and rinsed several times with ice-cold 50 mM Tris-HCl using a 96-sample cell harvester (Unifilter, Packard). The filters were dried then counted for radioactivity in a scintillation counter (Topcount, Packard) using a scintillation cocktail (Microscint 0, Packard). The results are expressed as a percent inhibition of the control radioligand specific binding. The standard reference compound is testosterone, which is tested in each experiment at several concentrations to obtain a competition curve from which its IC50 is calculated.

| SMILES | Kd |
| --- | --- |
| Cc1sc2c(c1C)C(c1ccc(Cl)cc1)=N[C@@H](CC(=O)NCCOCCOCCOCCOCCOCCOCCN(C)c1ncc(C(=O)N[C@H]3C(C)(C)[C@H](Oc4ccc(C#N)c(Cl)c4)C3(C)C)cn1)c1nnc(C)n1-2 [Compound I-4] | < 50 nM |
| Cc1sc2c(c1C)C(c1ccc(N3CC(C4CCN(c5ncc(C(=O)N[C@H]6C(C)(C)[C@H](Oc7ccc(C#N)c(Cl)c7)C6(C)C)cn5)CC4)C3)cc1)=N[C@@H](C)c1nnc(C)n1-2 [Compound I-271] | < 50 nM |
| Cc1sc2c(c1C)C(c1ccc(Cl)cc1)=N[C@@H](CC(=O)NCCCN1CCN(CCCN(C)c3ncc(C(=O)N[C@H]4C(C)(C)[C@H](Oc5ccc(C#N)c(Cl)c5)C4(C)C)cn3)CC1)c1nnc(C)n1-2 [Compound I-5, N-((1r,3r)-3-(3-chloro-4-cyanophenoxy)-2,2,4,4-tetramethylcyclobutyl)-2-((3-(4-(3-(2-((S)-4-(4-chlorophenyl)-2,3,9-trimethyl-6H-thieno[3,2-f][1,2,4]triazolo[4,3-a][1,4]diazepin-6-yl)acetamido)propyl)piperazin-1-yl)propyl)(methyl)amino)pyrimidine-5-carboxamide] | < 50 nM |
| CCNC(=O)C[C@@H]1N=C(c2cccc(OCCOCCOC3CCN(c4ncc(C(=O)N[C@H]5C(C)(C)[C@H](Oc6ccc(C#N)c(Cl)c6)C5(C)C)cn4)CC3)c2)c2c(sc(C)c2C)-n2c(C)nnc21 [Compound I-47, N-((1r,3r)-3-(3-chloro-4-cyanophenoxy)-2,2,4,4-tetramethylcyclobutyl)-2-(4-(2-(2-(3-((S)-6-(2-(ethylamino)-2-oxoethyl)-2,3,9-trimethyl-6H-thieno[3,2-f][1,2,4]triazolo[4,3-a][1,4]diazepin-4-yl)phenoxy)ethoxy)ethoxy)piperidin-1-yl)pyrimidine-5-carboxamide] | < 50 nM |
| Cc1sc2c(c1C)C(c1ccc(Cl)cc1)=N[C@@H](CC(=O)NCCOCCOCCOCC1CCN(c3ncc(C(=O)N[C@H]4C(C)(C)[C@H](Oc5ccc(C#N)c(Cl)c5)C4(C)C)cn3)CC1)c1nnc(C)n1-2 [Compound I-17] | < 50 nM |
| Cc1sc2c(c1C)C(c1ccc(Cl)cc1)=N[C@@H](CC(=O)NCCCCOCCOC1CCN(c3ncc(C(=O)N[C@H]4C(C)(C)[C@H](Oc5ccc(C#N)c(Cl)c5)C4(C)C)cn3)CC1)c1nnc(C)n1-2 [Compound I-28] | < 50 nM |
| CCNC(=O)C[C@@H]1N=C(c2ccc(N3CCC(N(C)C4CN(c5ncc(C(=O)N[C@H]6C(C)(C)[C@H](Oc7ccc(C#N)c(Cl)c7)C6(C)C)cn5)C4)CC3)cc2)c2c(sc(C)c2C)-n2c(C)nnc21 [Compound I-123] | < 50 nM |

Next, values leading:

| Kd | SMILES |
| --- | --- |
| < 50 nM | CCNC(=O)C[C@@H]1N=C(c2cccc(OCCOC3CCN(c4ncc(C(=O)N[C@H]5C(C)(C)[C@H](Oc6ccc(C#N)c(Cl)c6)C5(C)C)cn4)CC3)c2)c2c(sc(C)c2C)-n2c(C)nnc21 [Compound I-46, N-((1r,3r)-3-(3-chloro-4-cyanophenoxy)-2,2,4,4-tetramethylcyclobutyl)-2-(4-(2-(3-((S)-6-(2-(ethylamino)-2-oxoethyl)-2,3,9-trimethyl-6H-thieno[3,2-f][1,2,4]triazolo[4,3-a][1,4]diazepin-4-yl)phenoxy)ethoxy)piperidin-1-yl)pyrimidine-5-carboxamide] |
| < 50 nM | Cc1sc2c(c1C)C(c1cccc(OCCOCCOC3CCN(c4ncc(C(=O)N[C@H]5C(C)(C)[C@H](Oc6ccc(C#N)c(Cl)c6)C5(C)C)cn4)CC3)c1)=N[C@@H](CC(=O)O)c1nnc(C)n1-2 [Compound I-42] |

molecular target: T2, BRD4-BD2 (Homo sapiens, UniProt O60885); assay: bromoKdELECT assay for binding affinity to BRD4-BD2; details: Table 7
T2 construct: made in house; host or cells: T7 phage grown in an E. coli host derived from BL21
Protocol: Compounds were tested using a bromoKdELECT assay. T7 phage strains displaying bromodomains were grown in parallel in 24-well blocks in an E. coli host derived from the BL21 strain. E. coli were grown to log-phase and infected with T7 phage from a frozen stock (multiplicity of infection=0.4) and incubated with shaking at 32° C. until lysis (90-150 minutes). The lysates were centrifuged (5,000×g) and filtered (0.2 μm) to remove cell debris. Streptavidin-coated magnetic beads were treated with biotinylated small molecule or acetylated peptide ligands for 30 minutes at room temperature to generate affinity resins for bromodomain assays. The liganded beads were blocked with excess biotin and washed with blocking buffer (SeaBlock (Pierce), 1% BSA, 0.05% Tween 20, 1 mM DTT) to remove unbound ligand and to reduce nonspecific phage binding. Binding reactions were assembled by combining bromodomains, liganded affinity beads, and test compounds in 1× binding buffer (17% SeaBlock, 0.33×PBS, 0.04% Tween 20, 0.02% BSA, 0.004% Sodium azide, 7.4 mM DTT). Test compounds were prepared as 1000× stocks in 100% DMSO. Kds were determined using an 11-point 3-fold compound dilution series with one DMSO control point. All compounds for Kd measurements are distributed by acoustic transfer (non-contact dispensing) in 100% DMSO. The compounds were then diluted directly into the assays such that the final concentration of DMSO was 0.09%. All reactions performed in polypropylene 384-well plates. Each was a final volume of 0.02 ml. The assay plates were incubated at room temperature with shaking for 1 hour and the affinity beads were washed with wash buffer (1×PBS, 0.05% Tween 20). The beads were then resuspended in elution buffer (1×PBS, 0.05% Tween 20, 2 μM non-biotinylated affinity ligand) and incubated at room temperature with shaking for 30 minutes. The bromodomain concentration in the eluates was measured by qPCR.

| SMILES | Kd |
| --- | --- |
| CCNC(=O)C[C@@H]1N=C(c2ccc(N(C)CC3CN(c4ncc(C(=O)N[C@H]5C(C)(C)[C@H](Oc6ccc(C#N)c(Cl)c6)C5(C)C)cn4)C3)cc2)c2c(sc(C)c2C)-n2c(C)nnc21 [Compound I-107] | 50 to 500 nM |
| CCNC(=O)C[C@@H]1N=C(c2ccc(OCCOC3CCN(c4ncc(C(=O)N[C@H]5C(C)(C)[C@H](Oc6ccc(C#N)c(Cl)c6)C5(C)C)cn4)CC3)cc2)c2c(sc(C)c2C)-n2c(C)nnc21 [Compound I-60, N-((1r,3r)-3-(3-chloro-4-cyanophenoxy)-2,2,4,4-tetramethylcyclobutyl)-2-(4-(2-(4-((S)-6-(2-(ethylamino)-2-oxoethyl)-2,3,9-trimethyl-6H-thieno[3,2-f][1,2,4]triazolo[4,3-a][1,4]diazepin-4-yl)phenoxy)ethoxy)piperidin-1-yl)pyrimidine-5-carboxamide] | 50 to 500 nM |
| Cc1sc2c(c1C)C(c1ccc(CCCOC3CCN(c4ncc(C(=O)N[C@H]5C(C)(C)[C@H](Oc6ccc(C#N)c(Cl)c6)C5(C)C)cn4)CC3)cc1)=N[C@@H](CC(=O)NC1CC1)c1nnc(C)n1-2 [Compound I-102] | 50 to 500 nM |

More lines, now with the values ahead:

| Kd | SMILES |
| --- | --- |
| 50 to 500 nM | CCNC(=O)C[C@@H]1N=C(c2ccc(OCCOC3CCN(c4ncc(C(=O)N[C@H]5C(C)(C)[C@H](Oc6ccc(C#N)c(Cl)c6)C5(C)C)cn4)CC3)c(F)c2)c2c(sc(C)c2C)-n2c(C)nnc21 [Compound I-76] |
| > 2500 nM | CCNC(=O)C[C@@H]1N=C(c2ccc(CCCC3CCN(c4ncc(C(=O)N[C@H]5C(C)(C)[C@H](Oc6ccc(C#N)c(Cl)c6)C5(C)C)cn4)CC3)cc2)c2c(sc(C)c2C)-n2c(C)nnc21 [Compound I-95] |
| 50 to 500 nM | CCNC(=O)C[C@@H]1N=C(c2ccc(N3CCC(N(C)C4CCN(c5ncc(C(=O)N[C@H]6C(C)(C)[C@H](Oc7ccc(C#N)c(Cl)c7)C6(C)C)cn5)CC4)CC3)cc2)c2c(sc(C)c2C)-n2c(C)nnc21 [Compound I-113] |
| > 2500 nM | Cc1sc2c(c1C)C(c1ccc(CCCOC3CCN(c4ncc(C(=O)N[C@H]5C(C)(C)[C@H](Oc6ccc(C#N)c(Cl)c6)C5(C)C)cn4)CC3)cc1)=N[C@@H](C)c1nnc(C)n1-2 [Compound I-228, N-[3-(3-chloro-4-cyano-phenoxy)-2,2,4,4-tetramethyl-cyclobutyl]-2-[4-[3-[4-[(9S)-4,5,9,13-tetramethyl-3-thia-1,8,11,12-tetrazatricyclo [8.3.0.02,6]trideca-2(6),4,7,10,12-pentaen-7-yl]phenyl]propoxy]-1-piperidyl]pyrimidine-5-carboxamide] |
| 50 to 500 nM | CCNC(=O)C[C@@H]1N=C(c2ccc(OCCOC3CCN(c4ncc(C(=O)N[C@H]5C(C)(C)[C@H](Oc6ccc(C#N)c(Cl)c6)C5(C)C)cn4)CC3)c(F)c2F)c2c(sc(C)c2C)-n2c(C)nnc21 [Compound I-73] |
| > 2500 nM | Cc1sc2c(c1C)C(c1ccc(CCCOC3CCN(c4ncc(C(=O)N[C@H]5C(C)(C)[C@H](Oc6ccc(C#N)c(Cl)c6)C5(C)C)cn4)CC3)cc1)=N[C@@H](Cc1ncco1)c1nnc(C)n1-2 [Compound I-131, N-[3-(3-chloro-4-cyano-phenoxy)-2,2,4,4-tetramethyl-cyclobutyl]-2-[4-[3-[4-[(9S)-4,5,13-trimethyl-9-(oxazol-2-ylmethyl)-3-thia-1,8,11,12-tetrazatricyclo[8.3.0.02,6]trideca-2(6),4,7,10,12-pentaen-7-yl]phenyl]propoxy]-1-piperidyl]pyrimidine-5-carboxamide] |
